In US20250108036A1, “COMPOSITIONS FOR REMOVING SENESCENT CELLS AND USES THEREOF” (LIFECEUTIX CO., LTD., priority 2021, published 2025):

Tests used:
Assay type in all cases: cell-based, human
HMGN1 [1] = assay: HMGN1 ELISA in culture medium of A549 cancer cells (Example 12, Table 66); details: Homo sapiens, A549, doxorubicin-induced senescent A549 cells, test compound 90 μM, ELISA, DMSO = 100; read-out: HMGN1 (amount of HMGN1 secreted in the cell culture)
[2] = tested on: foreskin cells in which senescence was induced by doxorubicin; assay: CellTiter-Glo cell viability of doxorubicin-induced senescent foreskin cells (Examples 1-2, 10, 11, 13; Tables 4, 63, 65); details: doxorubicin-induced senescent foreskin cells, CellTiter-Glo, 0 μM = 100; for viability at 1.1 µM / viability at 10 µM / viability at 30 µM / viability at […]: Homo sapiens, 72 h, read-out: Survival (%)
Description: After 3 days, cell viability was measured using CellTiter-Glo Luminescent Cell Viability Assay (Promega) or light microscopy.

A549 = assay: CellTiter-Glo cell viability of senescent A549 cancer cells (Example 12, Table 67); details: CellTiter-Glo; for viability at 1.1 µM / viability at 10 µM / viability at 30 µM / viability at 90 µM: Homo sapiens, A549, doxorubicin-induced senescent A549 cancer cells, read-out: Survival (%); for Survival (%): doxorubicin-induced senescent A549 cancer cells
HMGN1 [3] = assay: HMGN1 ELISA in culture medium of foreskin cells (Examples 10, 11; Tables 62, 63, 64); details: Homo sapiens, 30 μM test compound, doxorubicin-treated foreskin cells, DMSO = 100; read-out: HMGN1

Row | SMILES | activity at 90 µM (HMGN1 [1]) [%] | viability at 1.1 µM ([2]; 1.1 μM test compound) [%] | viability at 10 µM ([2]; 10 μM test compound) [%] | viability at 30 µM ([2]; 30 μM test compound) [%] | viability at […] ([2]; […] test compound) [%] | viability at 1.1 µM (A549; 1.1 μM test compound) [%] | viability at 10 µM (A549; 10 μM test compound) [%] | viability at 30 µM (A549; 30 μM test compound) [%] | viability at 90 µM (A549; 90 μM test compound) [%] | activity at 30 µM (HMGN1 [3]) [%] | Survival (%) ([2]; 1.1 μM test compound) | Survival (%) ([2]; 10 μM test compound) | Survival (%) ([2]; 30 μM test compound) | Survival (%) ([2]; […] test compound) | Survival (%) (A549; 1.1 μM test compound) | Survival (%) (A549; 10 μM test compound) | Survival (%) (A549; 30 μM test compound) | Survival (%) (A549; 90 μM test compound)
1 | CCn1c2ccc(CNC)cc2c2ccc(-c3cnoc3)cc21 [LX-903] | 239 | 104 | 73.2 | 5.7 | 89.8 | 98.9 | 81.6 | 42.7 | 12.3 | 324 | – | – | – | – | – | – | – | –
2 | CCn1c(C#CCNc2ccccc2)cc2cc(CNC)ccc21 [LX-905] | 217 | 97.6 | 42.5 | 6.9 | 91.6 | 101 | 83.1 | 79.5 | 22.7 | 318 | – | – | – | – | – | – | – | –
3 | Cn1cc(-c2ccccc2)c(-n2cccc2)n1 [LX-907] | 264 | 98.8 | 62.8 | 9.7 | 95.1 | 90.1 | 78.5 | 53.7 | 5.9 | 297 | – | – | – | – | – | – | – | –
4 | CN(C)CCn1cc(-c2ccc(F)cc2)c(-n2cccc2)n1 [LX-909] | 240 | – | – | – | – | – | – | – | – | 267 | 100.5 | 75.1 | 2.8 | 85.5 | 96.7 | 85.6 | 77.2 | 17.5
5 | CCN(CC)C1CCN(Cc2cc(C#CCNc3ccccc3)cc(I)c2O)CC1 [LX-910] | 238 | 95.6 | 68.4 | 1.1 | 84.7 | 95.8 | 76.9 | 47.5 | 2.7 | 278 | – | – | – | – | – | – | – | –
6 | CCN(CC)c1nc2c(C(=O)O)c(O)c(I)c(-n3cccc3)c2s1 [LX-911] | 206 | 94.3 | 43.5 | 7.5 | 91.6 | 98.4 | 82.9 | 78.6 | 27.4 | 294 | – | – | – | – | – | – | – | –
7 | CCNC(=O)c1c(O)c(I)c(-n2cccc2)c2sc(N(CC)CC)nc12 [LX-912] | 244 | 104 | 32.7 | 3.1 | 85.2 | 92.4 | 83.9 | 32.4 | 6.7 | 317 | – | – | – | – | – | – | – | –
8 | COC(=O)/C=C\C(C#N)(C#N)/N=C/c1ccc(C)cc1 [LX-920] | 197 | 100 | 86.2 | 23.8 | 95.4 | 98.4 | 95.3 | 93.9 | 25.1 | 278 | – | – | – | – | – | – | – | –
9 | C=C(CN(C)C)C(=O)c1cc(C)ccc1C [LX-921] | 175 | 99.6 | 89.1 | 15.7 | 89.2 | 99.5 | 91.2 | 90.9 | 39.7 | 311 | – | – | – | – | – | – | – | –
10 | C=C(CN(C)C)C(=O)c1ccc(C)cc1C [LX-923] | 219 | 97.7 | 75.7 | 19.5 | 94.5 | 96.7 | 89.4 | 81.7 | 15.7 | 271 | – | – | – | – | – | – | – | –
11 | CC(C)Oc1ccc(-c2ccccc2)cc1-n1c(CN2CCN(C(=O)COc3ccc(Cl)cc3)CC2)nc2ccccc2c1=O [LX-1001] | 183 | 89.9 | 57.7 | 34.5 | 81.8 | 95.5 | 92.2 | 71.8 | 25.3 | 231 | – | – | – | – | – | – | – | –
